Assay results taken from ChEMBL document CHEMBL1201862, “PubChem BioAssay data set” (2004).
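Test compounds were applied to cells in 96-well plates for 48 hours at 5 doses. GI50 is the concentration that inhibits growth by half.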 Activity calls are given as the source filed them. Rule as the data show it: active = GI50 up to about 1.1 µM and inactive = higher.

What was measured:
Assay in all cases: NCI tumour cell line growth inhibition, 48 h
[1] = test system: KM12
[2] = test system: A549
[3] = test system: IGROV-1
[4] = test system: HOP-92
[5] = test system: NCI-H460
[6] = test system: KM-20L2
[7] = test system: OVCAR-8
[8] = test system: CAKI-1
[9] = test system: HCT-15
[10] = test system: M14
[11] = test system: K562
[12] = test system: HCC 2998
[13] = test system: SK-OV-3
[14] = test system: HL-60
[15] = test system: M19-MEL
[16] = test system: HCT-116
[17] = test system: NCI-H23
[18] = test system: T47D
[19] = test system: MDA-N
[20] = test system: Hs-578T

For `CN(C)CC/[N+]([O-])=C(/c1ccccc1)C12CC3CC(CC(C3)C1)C2`, the GI50 [1] was 18.3 µM (inactive), the GI50 [2] was 18.4 µM (inactive) and the GI50 [3] was 18.5 µM (inactive). For the same compound, the GI50 [4] was 14.1 µM (inactive), the GI50 [5] was 18.4 µM (inactive) and the GI50 [6] was 11.5 µM (inactive). For the same compound, the GI50 [7] was 17.9 µM (inactive), the GI50 [8] was 17 µM (inactive) and the GI50 [9] was 19.1 µM. For the same compound, the GI50 [10] was 13.4 µM (inactive), the GI50 [11] was 15.1 µM (inactive) and the GI50 [12] was 22.2 µM (inactive). For the same compound, the GI50 [13] was 17.1 µM (inactive), the GI50 [14] was 11.8 µM (inactive) and the GI50 [15] was 13.8 µM (inactive). For the same compound, the GI50 [16] was 17.9 µM (inactive) and the GI50 [17] was 20.1 µM (inactive).
For `COc1ccccc1C(=O)N(Cc1ccccc1)c1ccc(Cl)c(C(=O)OC(C)C)c1`, the GI50 [1] was 21.2 µM (inactive), the GI50 [2] was 19.4 µM (inactive) and the GI50 [3] was 25.8 µM (inactive). The GI50 [4] was 6.67 µM (inactive), the GI50 [5] was 21.4 µM (inactive) and the GI50 [6] was 30.3 µM (inactive). For the same compound, the GI50 [18] was 5.52 µM (inactive), the GI50 [7] was 27.8 µM (inactive) and the GI50 [8] was 12.3 µM (inactive). The GI50 [9] was 19.8 µM, the GI50 [10] was 20.7 µM (inactive) and the GI50 [19] was 38.2 µM (inactive). The GI50 [20] was 61.1 µM (inactive), the GI50 [11] was 6.89 µM (inactive) and the GI50 [12] was 18.2 µM (inactive). The GI50 [13] was 25.4 µM (inactive), the GI50 [14] was 9.4 µM (inactive) and the GI50 [15] was 25.8 µM (inactive). The GI50 [16] was 13.7 µM (inactive) and the GI50 [17] was 20.6 µM (inactive).
`Cc1[nH]c2ccccc2c1C1Cc2ccccc2N1C(=O)/C=C/C=C/c1ccccc1` (stereo not given) was tested, and the GI50 [1] was > 100 µM (inactive), the GI50 [2] was > 100 µM (inactive) and the GI50 [3] was > 100 µM (inactive). For the same compound, the GI50 [4] was > 100 µM (inactive), the GI50 [5] was > 100 µM (inactive) and the GI50 [6] was > 100 µM (inactive). For the same compound, the GI50 [7] was > 100 µM (inactive), the GI50 [8] was > 100 µM (inactive) and the GI50 [9] was greater than 100 µM. The GI50 [10] was > 100 µM (inactive), the GI50 [11] was > 100 µM (inactive) and the GI50 [12] was > 100 µM (inactive). The GI50 [13] was > 100 µM (inactive), the GI50 [14] was 27.5 µM (inactive) and the GI50 [15] was > 100 µM (inactive). For the same compound, the GI50 [16] was > 100 µM (inactive) and the GI50 [17] was > 100 µM (inactive).
In the case of `CCCSS[C@H]1NC(=O)[C@H]1NC(=O)COc1ccccc1`, the GI50 [1] is reported as 17.2 µM (inactive), the GI50 [2] is reported as 24.4 µM (inactive) and the GI50 [3] is reported as 21.1 µM (inactive). For the same compound, the GI50 [4] was 10.4 µM (inactive), the GI50 [5] was 17.6 µM (inactive) and the GI50 [6] was 20.9 µM (inactive). The GI50 [7] was 13.9 µM (inactive), the GI50 [8] was 17.3 µM (inactive) and the GI50 [9] was 11.7 µM. For the same compound, the GI50 [10] was 12 µM (inactive), the GI50 [11] was 6.19 µM (inactive) and the GI50 [12] was 15.5 µM (inactive). For the same compound, the GI50 [13] was > 100 µM (inactive), the GI50 [14] was 2.6 µM (inactive) and the GI50 [15] was 17.9 µM (inactive). The GI50 [16] was 10.3 µM (inactive) and the GI50 [17] was 17.7 µM (inactive).
`COC1=C(N=[N+]=[N-])C(=O)c2ncccc2C1=O` was tested, and the GI50 [1] was 15.6 µM (inactive), the GI50 [2] was 16.6 µM (inactive) and the GI50 [3] was 5.38 µM (inactive). The GI50 [4] was 1.29 µM (inactive), the GI50 [5] was 15.7 µM (inactive) and the GI50 [6] was 18.5 µM (inactive). The GI50 [18] was 2.13 µM (inactive), the GI50 [7] was 3.47 µM (inactive) and the GI50 [8] was 5.58 µM (inactive). The GI50 [9] was 7.83 µM, the GI50 [10] was 3.73 µM (inactive) and the GI50 [19] was 1.95 µM (inactive). For the same compound, the GI50 [20] was 18.5 µM (inactive), the GI50 [11] was 2.84 µM (inactive) and the GI50 [12] was 17.1 µM (inactive). The GI50 [13] was 15.2 µM (inactive), the GI50 [14] was 0.962 µM (active) and the GI50 [15] was 1.91 µM (inactive). For the same compound, the GI50 [16] was 2.65 µM (inactive) and the GI50 [17] was 5.36 µM (inactive).
For `O=C1CCCC/C1=C1\C(=O)Nc2cc(F)ccc21`, the GI50 [1] was > 100 µM (inactive), the GI50 [2] was > 100 µM (inactive) and the GI50 [3] was > 100 µM (inactive). The GI50 [4] was > 100 µM (inactive), the GI50 [5] was > 100 µM (inactive) and the GI50 [6] was > 100 µM (inactive). For the same compound, the GI50 [7] was > 100 µM (inactive), the GI50 [8] was > 100 µM (inactive) and the GI50 [9] was greater than 100 µM. The GI50 [10] was > 100 µM (inactive), the GI50 [11] was > 100 µM (inactive) and the GI50 [12] was > 100 µM (inactive). For the same compound, the GI50 [13] was > 100 µM (inactive), the GI50 [14] was > 100 µM (inactive) and the GI50 [15] was > 100 µM (inactive). For the same compound, the GI50 [16] was > 100 µM (inactive) and the GI50 [17] was > 100 µM (inactive).
In the case of `CC(CC(=O)Nc1ccc(NC(=O)CC(C)/N=N\C(N)=O)cc1)/N=N\C(N)=O` (stereo not given), the GI50 [1] is reported as > 100 µM (inactive), the GI50 [2] is reported as > 100 µM (inactive) and the GI50 [3] is reported as > 100 µM (inactive). For the same compound, the GI50 [4] was > 100 µM (inactive), the GI50 [5] was 50.9 µM (inactive) and the GI50 [6] was > 100 µM (inactive). The GI50 [7] was > 100 µM (inactive), the GI50 [8] was > 100 µM (inactive) and the GI50 [9] was 16.4 µM. For the same compound, the GI50 [10] was > 100 µM (inactive), the GI50 [11] was > 100 µM (inactive) and the GI50 [12] was > 100 µM (inactive). For the same compound, the GI50 [13] was > 100 µM (inactive), the GI50 [14] was > 100 µM (inactive) and the GI50 [15] was > 100 µM (inactive). For the same compound, the GI50 [16] was > 100 µM (inactive) and the GI50 [17] was > 100 µM (inactive).
